Source: publication PMC7278776, “Multidrug Resistance Modulation Activity of Silybin Derivatives and Their Anti-Inflammatory Potential” (Antioxidants, 2020)
Marks after values point to notes of the source that are not given here.

Key:
[1] = ORAC (oxygen radical absorption capacity) assay; details: fluorescein/AAPH; read-out: ORAC, concentration necessary to halve the fluorescence response (IC50)
Procedure: Antioxidant capacity of samples was determined by ORAC (oxygen radical absorption capacity) and CAA (cellular antioxidant activity) assays. ORAC assay was realized by the previously described protocol. Briefly, 50 µL of the fluorescein solution (1.6 µg/mL in phosphate-buffered saline (PBS), pH 7.4) was added by a dispenser (MultiFlo Microplate Dispenser, BioTek Instrument, Winooski, VT, USA) into each well of a 96-well plate. Subsequently, 2 µL of tested compound in the concentration range 1.25–20 µM and 23 µL of PBS were added to the wells. The plate was incubated for 15 min at 37 °C and then 25 µL of AAPH (60 mg/mL) was added to each well. AAPH was replaced with PBS for the negative control. Immediately, the fluorescence was recorded by the microplate reader (SpectraMax i3 Multi-Mode Detection Platform, Molecular Devices, San Jose, CA, USA) for 2 h in 5 min steps (excitation/emission 485/535 nm).

IL-6 = IL-6 release by LPS-induced macrophages (ELISA); assay type: cell-based, mouse; details: for IL-6 (pg/mL): untreated LPS control 1148 ± 35; for IC50: Mus musculus, RAW264.7, RAW 264.7, LPS + compound 6 h, read-out: IL-6, concentration necessary to halve the release (IC50)
Procedure: To determine the level of inflammatory cytokine IL-6, macrophages were cultivated with LPS (1 µg/mL) and the tested compounds (7–50 µM) for 6 h. After incubation, the plates were centrifuged (1000× g; 10 min, 4 °C) and then the medium was removed and frozen to −80 °C. Prior to the detection, the samples were diluted in ELISA diluent in a 1:10 ratio. Production of the cytokine was determined by uncoated ELISA performed according to the manufacturer’s instructions.

acetylcholinesterase = acetylcholinesterase (Homo sapiens, UniProt P22303); assay: Acetylcholinesterase activity, Ellman colorimetric method; assay type: biochemical
acetylcholinesterase, sequence (P22303 32-614, species assumed): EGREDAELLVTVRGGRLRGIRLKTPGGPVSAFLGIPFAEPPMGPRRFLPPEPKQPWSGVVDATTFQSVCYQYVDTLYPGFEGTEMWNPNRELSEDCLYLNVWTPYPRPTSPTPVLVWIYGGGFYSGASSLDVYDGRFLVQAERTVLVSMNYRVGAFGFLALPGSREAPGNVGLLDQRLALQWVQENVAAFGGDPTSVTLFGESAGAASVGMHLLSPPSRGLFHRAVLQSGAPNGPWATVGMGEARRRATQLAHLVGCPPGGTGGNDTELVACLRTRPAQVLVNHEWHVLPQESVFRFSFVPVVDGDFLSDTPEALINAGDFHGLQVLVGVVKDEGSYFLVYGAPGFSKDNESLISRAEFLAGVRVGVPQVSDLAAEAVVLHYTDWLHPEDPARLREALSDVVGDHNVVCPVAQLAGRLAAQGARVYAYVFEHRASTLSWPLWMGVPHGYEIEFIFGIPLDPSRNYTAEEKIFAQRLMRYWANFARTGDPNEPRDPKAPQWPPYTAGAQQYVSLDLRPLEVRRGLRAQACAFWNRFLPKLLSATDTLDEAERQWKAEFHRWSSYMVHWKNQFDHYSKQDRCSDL
Procedure: The activity of acetylcholinesterase was measured by the Ellman colorimetric method. A stock solution of acetylcholinesterase was prepared in PBS (0.057 U/mL), 100× diluted and stored in a freezer (−20 °C). Further, the solution of DTNB (5,5′-dithio-bis-2-nitrobenzoic acid, 50 µM) and ATC ([…], 50 µM) was prepared. […] Afterwards, 10 µL of DNTB and ATC solution was added, and the reaction was launched. After the addition of reagents, the absorbance at 412 nm was recorded for 10 min every minute.

ABCA2 = ABCA2 mRNA expression (real-time PCR); assay type: cell-based, human; details: A2780/DOX, 10 µM combined with doxorubicin at IC25, 48 h
Procedure: (§1) The A2780/DOX cell line was seeded into 5 cm Petri dishes with DMEM medium at 1 × 10^5 cell/mL. After 24 h, the dishes were washed with PBS and new DMEM medium supplemented with doxorubicin (at concentration equal to IC25) and samples (10 µM) were added. After 48 h of treatment, the cells were washed with PBS and harvested using the standard trypsin-EDTA procedure. The harvested cells were centrifuged (3200× g; 10 min, 4 °C). The supernatant was discarded, and the pellets were washed with 1.5 mL of cooled PBS (5400× g; 10 min, 4 °C). The washing step was repeated with 1 mL of PBS and the cells were centrifuged again (10,000× g; 3 min, 4 °C). Afterwards, the pellets were resuspended in 1 mL of Trizol (Invitrogen, Carlsbad, CA, USA) and transferred into pre-cooled RNase-free microfuge tubes. The samples were stored at −80 °C.
(§2) A Quant-iT RiboGreen RNA Assay Kit (Invitrogen) was used to determine the RNA concentration using the Infinite M200 plate reader (Tecan, Männedor, Switzerland). The cDNA was prepared from 0.5 µg of total RNA using a RevertAid First Strand Synthesis cDNA Kit (MBI Fermentas, Vilnius, Lithuania). The amplification of the ubiquitin C gene fragment was used to determine the quality of cDNA.
(§3) The experiment was performed using the ViiA7 Real-Time polymerase chain reaction (PCR) System (Life Technologies, Camarillo, CA, USA) with a 384-well block. Before quantitative real-time PCR, the master mix was prepared by mixing 2 µL of 8 × diluted cDNA, 1.75 µL of RNase free water, 1 µL of 5 × HotFIREPol Probe quantitative PCR Mix Plus (Solis Biodyne, Tartu, Estonia) and 0.25 µL of specific 20 × TaqMan Gene Expression Assay (Life Technologies), giving 5 µL of final reaction volume. Cycling parameters were: initial hold at 50 °C for 2 min and denaturation at 95 °C for 10 min, followed by 45 cycles consisting of denaturation at 95 °C for 15 s and annealing/extension at 60 °C for 1 min. After each extension phase, the fluorescence values were acquired. Duplicate samples were used for measurement and samples with a standard deviation of duplicates > 1.0 cycle threshold (Ct) were re-analyzed. The real time PCR procedure was maintained according to MIQE (Minimum information for publication of quantitative real-time PCR experiments) guidelines. The software REST 2009 (Qiagen, Hilden, Germany) served to compare relative transcript levels of genes in the cell line.

ABCA5 = ABCA5 mRNA expression (real-time PCR); assay type: cell-based, human; details: A2780/DOX
Procedure: as §1, §2, §3

ABCB2 = ABCB2 mRNA expression (real-time PCR); assay type: cell-based, human; details: A2780/DOX, 10 µM combined with doxorubicin at IC25, 48 h
Procedure: as §1, §2, §3

ABCB10 = ABCB10 mRNA expression (real-time PCR); assay type: cell-based, human; details: A2780/DOX
Procedure: as §1, with “After 24 h, the dishes were washed with PBS and new DMEM medium supplemented with doxorubicin (at concentration equal to IC25) and samples (10 µM) were added.” left out
as §2, §3

ABCC5 = ABCC5 mRNA expression (real-time PCR); assay type: cell-based, human; details: A2780/DOX, 10 µM combined with doxorubicin at IC25, 48 h
Procedure: as §1, §2, §3

ABCC10 = ABCC10 mRNA expression (real-time PCR); assay type: cell-based, human; details: A2780/DOX
Procedure: as §1, with “After 24 h, the dishes were washed with PBS and new DMEM medium supplemented with doxorubicin (at concentration equal to IC25) and samples (10 µM) were added.” left out
as §2, §3

ABCD3 = ABCD3 mRNA expression (real-time PCR); assay type: cell-based, human; details: A2780/DOX
Procedure: as §1, §2, §3

ABCF3 = ABCF3 mRNA expression (real-time PCR); assay type: cell-based, human; details: A2780/DOX
Procedure: as §1, with “After 24 h, the dishes were washed with PBS and new DMEM medium supplemented with doxorubicin (at concentration equal to IC25) and samples (10 µM) were added.” left out
as §2, §3

ABCG2 (BCRP) = assay: ABCG2 mRNA expression (real-time PCR); assay type: cell-based, human; details: A2780/DOX, 10 µM combined with doxorubicin at IC25, 48 h
Procedure: as §1, with “After 24 h, the dishes were washed with PBS and new DMEM medium supplemented with doxorubicin (at concentration equal to IC25) and samples (10 µM) were added.” left out
as §2, §3

[2] = 10 µM combined with doxorubicin at IC25, 48 h
[3] = 10 µM, 48 h, without doxorubicin

| Structure (SMILES) | IC50 [1] | IL-6 (pg/mL) (IL-6; compound 7 µM) | IL-6 (pg/mL) (IL-6; compound 15 µM) | IL-6 (pg/mL) (IL-6; compound 50 µM) | IC50 (acetylcholinesterase) | ABCA2 Expression Difference (ABCA2) | ABCA5 Expression Difference (ABCA5; [2]) | ABCB2 Expression Difference (ABCB2) | ABCB10 Expression Difference (ABCB10; [2]) | ABCB10 Expression Difference (ABCB10; [3]) | ABCC5 Expression Difference (ABCC5) | ABCC10 Expression Difference (ABCC10; [2]) | ABCC10 Expression Difference (ABCC10; [3]) | ABCD3 Expression Difference (ABCD3; [2]) | ABCF3 Expression Difference (ABCF3; [2]) | ABCG2 Expression Difference (ABCG2 (BCRP)) | IC50 (IL-6) | ABCA5 Expression Difference (ABCA5; [3]) | ABCD3 Expression Difference (ABCD3; [3]) | ABCF3 Expression Difference (ABCF3; [3]) |
| --- | --- | --- | --- | --- | --- | --- | --- | --- | --- | --- | --- | --- | --- | --- | --- | --- | --- | --- | --- | --- |
| COc1cc([C@@H]2Oc3cc(-c4oc5cc(O)cc(O)c5c(=O)c4O)ccc3O[C@H]2CO)ccc1O [Dehydrosilybin B, 2,3-dehydrosilybin B] | 11.8 ± 0.6 µM | 582 ± 19 ^c pg/mL | 301 ± 9 ^c pg/mL | 122 ± 3 ^b,c pg/mL | 6.8 ± 0.8 µM | 1.078 | 1.707 | 9.286 | 1.221 | 1.186 | 1.385 | 1.618 | 1.107 | 1.347 | 1.963 | 1.948 | – | – | – | – |
| COc1cc([C@H]2Oc3cc([C@H]4Oc5cc(O)cc(O)c5C(=O)[C@@H]4O)ccc3O[C@@H]2CO)ccc1O [Silybin A, silybin A] | 6.6 ± 0.3 µM | 422 ± 42 ^b pg/mL | 271 ± 15 ^c pg/mL | 125 ± 16 ^c pg/mL | 181 ± 6.1 µM | 1.239 | 2.427 | 17.975 | 1.060 | 1.136 | 1.782 | 1.812 | 1.260 | 1.637 | 1.570 | 2.415 | 8.4 ± 0.3 µM | – | – | – |
| COc1cc(C2Oc3cc([C@H]4Oc5cc(O)cc(O)c5C(=O)[C@@H]4O)ccc3OC2CO)ccc1O (some centres unmarked) [Silybin AB, silybin] | 7.1 ± 0.6 µM | 311 ± 18 ^a pg/mL | 173 ± 5 ^b pg/mL | 83 ± 4 ^b pg/mL | 22.6 ± 1.4 µM | 1.207 | 2.122 | 18.114 | 1.069 | 2.204 | 1.787 | 1.855 | 1.857 | 1.560 | 1.554 | 2.373 | 4.8 ± 0.3 µM | 1.933 | 2.181 | 1.440 |
